# Test: Hydrolysis of linkers with or without glucose present (half-life by LC-MS or UPLC)
# Assay type: physicochemical
# Settings: pH 7.4, 37°C, 0.42 mM linker
# Protocol: 1.3-1.8 mg of linkers was dissolved in 100 µL DMSO or 100 µL MeCN. 10 µL was taken out from the DMSO stock solution, diluted with 90µL DMSO and dissolved in 900 µL 1xPBS buffer containing 10 000 equiv glucose, pH 7.4 or 900 µL 1xPBS buffer pH 7.4, to give a final concentration of 0.42 mM of the linker. 10 µL was taken out from the MeCN stock solution, diluted with 40 µL MeCN and dissolved in 950 µL 1xPBS buffer containing 10 000 equiv glucose, pH 7.4 or 950 µL 1xPBS buffer pH 7.4 to give a final concentration of 0.42 mM of the linker. The samples were incubated at 37°C and continuously analysed by LC-MS or UPLC.
# [1] = 5% MeCN in PBS buffer, 10.000 equiv Glc
# [2] = 10% DMSO in PBS buffer, 10.000 equiv Glc
Structure (SMILES),Half-life of the linker [1],Half-life of the linker [2],"Half-life of the linker (10% DMSO in PBS buffer, no Glc)","Half-life of the linker (5% MeCN in PBS buffer, no Glc)"
"COc1ccc(C2N[C@H](C(=O)OCc3ccccc3)CS2)cc1 (stereo partly drawn) [Linker 8, Benzyl (4R)-2-(4-methoxyphenyl)-1,3-thiazolidine-4-carboxylic acid]",46 h,42 h,,
O=C(O)[C@@H]1CSC(c2ccc([N+](=O)[O-])cc2)N1 (some centres unmarked) [Linker 5],,>24 h,>72 h,
"COc1cccc(C2N[C@H](C(=O)OCc3ccccc3)CS2)c1 (stereo partly drawn) [Linker 9, Benzyl (4R)-2-(3-methoxyphenyl)-1,3-thiazolidine-4-carboxylic acid]",>72 h,>72 h,,
"COc1ccccc1C1N[C@H](C(=O)OCc2ccccc2)CS1 (stereo partly drawn) [Linker 10, Benzyl (4R)-2-(2-methoxyphenyl)-1,3-thiazolidine-4-carboxylic acid]",45 h,23 h,,
"CC(=O)Nc1ccc(C2N[C@H](C(=O)OCc3ccccc3)CS2)cc1 (stereo partly drawn) [Linker 11, Benzyl (4R)-2-(4-acetamidophenyl)-1,3-thiazolidine-4-carboxylic acid]",>72 h,>72 h,,
COc1ccc(C2N[C@H](C(=O)O)CS2)cc1 (some centres unmarked) [Linker 2],,2 h,4 h,
CC(C)(C)OC(=O)N1C(c2ccccc2)OC[C@H]1C(=O)OCc1ccccc1 (some centres unmarked) [Linker 15],>72 h,>72 h,>72 h,>72 h
O=C(O)[C@@H]1CSC(Cc2ccccc2)N1 (some centres unmarked) [Linker 6],,24 h,>72 h,
O=C(O)[C@@H]1CSC(c2ccccc2)N1 (some centres unmarked) [Linker 1],,12 h,>48 h,
COc1ccc(C2OC[C@@H](C(=O)OCc3ccccc3)N2C(=O)OC(C)(C)C)cc1 (some centres unmarked) [Linker 13],>72 h,>72 h,>72 h,>72 h
COC(=O)[C@@H]1OC(c2ccccc2OC)O[C@H]1C(=O)OC [Linker 19],2.5 h,1.5 h,1.7 h,2.5 h
COc1ccc(C2N[C@H](C(=O)O)CS2)cc1O (some centres unmarked) [Linker 4],,4 h,10 h,
"O=C(OCc1ccccc1)[C@@H]1CSC(c2ccccc2)N1 (stereo partly drawn) [Linker 7, Benzyl (4R)-2-phenyl-1,3-thiazolidine-4-carboxylic acid]",>48 h,>48 h,,
COC(=O)[C@@H]1OC(c2ccc(OC)cc2)O[C@H]1C(=O)OC [Linker 17],2.2 h,1.1 h,1.8 h,2.2 h
O=C(O)[C@@H]1CSC(c2ccccc2O)N1 (some centres unmarked) [Linker 3],,0.5 h,2 h,

# — patent publication EP3586876A1, “GLUCOSE-SENSITIVE PEPTIDE HORMONES” (Gubra ApS, priority 2018, dated 2020)
